Type in all cases: in vitro ADME
In data set [1] the target is T1, CYP3A4 (Homo sapiens, UniProt P08684).
T1 construct: The pooled human liver microsomes (HLMs) were obtained from BD Biosciences Discovery Labware; tissue BD Biosciences Discovery Labware; host or cells: pooled human liver microsomes
Description: CYP3A4 inhibition in pooled human liver microsomes (testosterone 6β-hydroxylation). Here is the method:
(§1) The pooled human liver microsomes (HLMs) were obtained from BD Biosciences Discovery Labware. The HLMs were incubated with specific substrates of corresponding CYP450 isoenzymes under the reaction conditions in Table 1 according to previous reports (Dong et al. [2018]; Zhang et al. [2019]; Zhang, Feng, et al. [2020]). The incubation system also included alpinetin (Figure 1, 99%, Chengdu Munster Biothechnology Co, China, or specific inhibitors) and an β-NADPH generating system as previously reported in the potassium phosphate buffer with a final volume of 200 μL. The β-NADPH generating system contained NADP^+, glucose-6-phosphate, glucose-6-phosphate dehydrogenase, and MgCl2, which was used to initiate the reaction after a pre-incubation of 3 min. At the end of the reactions, the acetonitrile or trichloroacetic acid (for the evaluation of CYP2A6) was added for the termination of the reactions. All reagents were of at least analytical reagent grade obtained from Sigma Aldrich (USA). All incubations were performed in triplicate and the concentrations of metabolites were analysed with HPLC.
(§2) The effect of alpinetin on the activity of CYP1A2, 2A6, 3A4, 2C8, 2C9, 2C19, 2D6, and 2E1 was first evaluated with a concentration of 100 μM. The isoenzymes that were inhibited by alpinetin were further incubated with 0, 2.5, 5, 10, 25, 50, and 100 μM alpinetin to obtain the values of IC50.
(§3) Meanwhile, the kinetic studies were conducted in the presence of various substrate concentrations to obtain the values of Ki. The inhibition model was evaluated according to the following equations: v = (VmaxS)/[Km(1 + I/Ki) + S] for the competitive inhibition and v = (VmaxS)/[(Km + S(1 + I/KiKI)] for the non-competitive inhibition. The I is the concentration of the compound, Ki is the inhibition constant, S is the concentration of the substrate, and Km is the substrate concentration at half the maximum velocity (Vmax) of the reaction.
(Liver microsomes are vesicles of endoplasmic reticulum, rich in cytochrome P450 enzymes.)

Data set [2] concerns the target T2, CYP2C9 (Homo sapiens, UniProt P11712).
T2 construct: The pooled human liver microsomes (HLMs) were obtained from BD Biosciences Discovery Labware; tissue BD Biosciences Discovery Labware; host or cells: pooled human liver microsomes
Description: CYP2C9 inhibition in pooled human liver microsomes (diclofenac 4′-hydroxylation). The method, then:
as §1, §2, §3

The target in data set [3] is T3, CYP2E1 (Homo sapiens, UniProt P05181).
T3 construct: The pooled human liver microsomes (HLMs) were obtained from BD Biosciences Discovery Labware; tissue BD Biosciences Discovery Labware; host or cells: pooled human liver microsomes
Nature of the data set: Time-dependent inhibition assay of CYP2E1 in human liver microsomes. The settings on record: data not shown. The method, then: (§4) The time-dependent inhibition assay was conducted with an incubation time of 0, 5, 10, 15, and 30 min after a 30 min pre-incubation with 1 mg/mL HLMs in the presence of NADPH-generating system at 37 °C.

Data set [4] deals with T1, CYP3A4. Nature of the data set: Time-dependent inhibition assay of CYP3A4 in human liver microsomes. The method, then:
as §4

Data set [5] deals with T2, CYP2C9. Nature of the data set: Time-dependent inhibition assay of CYP2C9 in human liver microsomes. The settings on record: data not shown. Here is the method:
as §4

The target of data set [6] is T3, CYP2E1. Nature of the data set: CYP2E1 inhibition in pooled human liver microsomes (chlorzoxazone 6-hydroxylation). The method, then: as §1, §2, §3
Setting [7] is: 100 μM alpinetin, relative to negative control.
Setting [8] is: competitive model, various substrate concentrations.

In general, Ki refers to a dissociation constant, usually derived from enzyme kinetics or from competition with a known ligand. Higher therefore signals lower affinity. In general, IC50 refers to the concentration that gives 50% inhibition.

T3 sequence (P05181 whole entry): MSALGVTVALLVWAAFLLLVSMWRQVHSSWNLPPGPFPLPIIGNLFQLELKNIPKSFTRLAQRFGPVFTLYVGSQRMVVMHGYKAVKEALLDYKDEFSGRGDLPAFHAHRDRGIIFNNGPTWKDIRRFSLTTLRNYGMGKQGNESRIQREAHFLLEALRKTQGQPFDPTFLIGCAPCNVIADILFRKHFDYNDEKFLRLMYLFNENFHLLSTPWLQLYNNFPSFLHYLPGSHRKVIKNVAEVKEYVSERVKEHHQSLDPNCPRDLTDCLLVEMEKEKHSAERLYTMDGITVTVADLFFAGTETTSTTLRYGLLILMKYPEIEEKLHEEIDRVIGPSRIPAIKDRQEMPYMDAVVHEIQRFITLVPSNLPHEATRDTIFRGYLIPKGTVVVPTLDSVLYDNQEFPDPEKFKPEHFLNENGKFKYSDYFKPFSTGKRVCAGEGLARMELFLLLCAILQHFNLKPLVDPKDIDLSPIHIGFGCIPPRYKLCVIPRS
T1 sequence (P08684 whole entry): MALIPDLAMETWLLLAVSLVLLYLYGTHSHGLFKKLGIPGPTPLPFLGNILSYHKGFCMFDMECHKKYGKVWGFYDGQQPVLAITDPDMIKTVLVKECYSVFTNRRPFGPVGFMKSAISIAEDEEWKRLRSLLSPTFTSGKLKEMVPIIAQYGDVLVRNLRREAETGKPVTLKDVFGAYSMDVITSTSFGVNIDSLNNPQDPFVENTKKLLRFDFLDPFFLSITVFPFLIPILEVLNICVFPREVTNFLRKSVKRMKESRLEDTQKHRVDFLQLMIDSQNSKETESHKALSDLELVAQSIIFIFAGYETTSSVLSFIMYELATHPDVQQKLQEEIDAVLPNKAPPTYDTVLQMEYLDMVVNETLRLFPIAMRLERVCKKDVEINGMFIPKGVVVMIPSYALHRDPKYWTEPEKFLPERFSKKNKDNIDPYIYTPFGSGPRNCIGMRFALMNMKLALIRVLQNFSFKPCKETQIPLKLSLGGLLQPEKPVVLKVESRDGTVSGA
T2 sequence (P11712 whole entry): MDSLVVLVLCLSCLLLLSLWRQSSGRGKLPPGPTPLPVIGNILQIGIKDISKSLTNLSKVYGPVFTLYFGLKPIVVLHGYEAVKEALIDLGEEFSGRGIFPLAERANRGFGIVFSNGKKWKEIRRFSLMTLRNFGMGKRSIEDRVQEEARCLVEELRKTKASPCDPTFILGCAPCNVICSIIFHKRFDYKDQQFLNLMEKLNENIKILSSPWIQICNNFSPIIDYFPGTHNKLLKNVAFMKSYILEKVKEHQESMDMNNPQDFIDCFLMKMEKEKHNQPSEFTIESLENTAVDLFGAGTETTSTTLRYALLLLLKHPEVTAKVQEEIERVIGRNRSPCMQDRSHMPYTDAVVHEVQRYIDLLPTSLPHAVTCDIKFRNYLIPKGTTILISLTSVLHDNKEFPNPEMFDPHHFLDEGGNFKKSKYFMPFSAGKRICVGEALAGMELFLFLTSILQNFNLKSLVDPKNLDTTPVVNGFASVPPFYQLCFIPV

Turning to `COc1cc(O)cc2c1C(=O)C[C@@H](c1ccccc1)O2` [alpinetin], the “Effect on CYP3A4 activity” value at CYP3A4 [1] (setting [7]) is given as “dramatically inhibitory effect”. Moreover, at CYP3A4 [1] (best-fitted model, stable Km), the “Inhibition model of CYP3A4” value was “non-competitive”. Besides, the Ki turned out to be 4.09 µM at CYP3A4 [1] (non-competitive model, 0, 2, 5, 10, and 20 μM alpinetin, various concentrations of testosterone); 6.42 µM on CYP2C9 [2] (setting [8]); 5.4 µM on CYP2E1 [6] (setting [8]). Further, the IC50 at CYP3A4 [1] (pooled HLMs, 0-100 μM alpinetin, testosterone 50 μM) was determined as 8.23 µM; at CYP2C9 [2] (pooled HLMs, 0-100 μM alpinetin, diclofenac 10 μM) it was 12.6 µM; against CYP2E1 [6] (pooled HLMs, 0-100 μM alpinetin, chlorzoxazone 120 μM), 11 µM. The “Effect on CYP2C9 activity” value at CYP2C9 [2] (setting [7]) was “dramatically inhibitory effect”. Further, the “Inhibition model of CYP2C9” value on CYP2C9 [2] (stable Vmax) is listed as “competitively”. Moreover, the “Time dependence of CYP2E1 inhibition” value at CYP2E1 [3] is reported as “no time-dependent characteristics”. Further, the Kinact of time-dependent CYP3A4 inhibition at CYP3A4 [4] (30 min pre-incubation, 1 mg/mL HLMs, substrate approx. 4-fold Km) was 0.041 min⁻¹. At CYP3A4 [4] (incubation 0, 5, 10, 15, and 30 min), the “Time dependence of CYP3A4 inhibition” value is listed as “time-dependent”. The “Time dependence of CYP2C9 inhibition” value on CYP2C9 [5] is listed as “no time-dependent characteristics”. On CYP2E1 [6] (setting [7]), the “Effect on CYP2E1 activity” value is given as “dramatically inhibitory effect”. Also, the “Inhibition model of CYP2E1” value on CYP2E1 [6] (stable Vmax) was “competitively”.

Source of the values: publication PMC9154758, “Alpinetin suppresses CYP3A4, 2C9, and 2E1 activity in vitro” (Pharmaceutical Biology, 2022).
